For data set [1] the following is noted: experiment 3; for salicylate release / permeation through epidermis: epidermis between fiber disc and phosphate buffer pH 7.4 (6 mM, µ=0.2), zero-order after lag time.
Protocol: Drug release in vitro from the fiber discs at 37 °C was tested in Franz diffusion cells (Crown Glass Co. Inc., Somerville, NJ) (Fig. 3). […] The fiber discs 10 were placed in the diffusion cells so that one side of the anionic ion-exchange fiber was exposed to the dissolution medium. The dissolution medium was pH 7.4 phosphate buffer saline (PBS, 143 mM, µ=0.15 (µ = ionic strength)) in experiment 1 and pH 7.4 phosphate buffer (6 mM, µ=0.2) in experiments 2 and 3. To assess the effect of the skin on drug release (experiment 3), a piece of epidermis 13 was placed between the fiber disc and buffer solution. At fixed times, samples of 250 µl were withdrawn and the drug concentration in the samples were determined by using HPLC (Beckman System Gold, Beckman Instrument, San Ramon, CA) with a Supelcosil LC-18-DB column (5 µm, 150 x 4.6 mm) (Supelco Inc., Rohm and Haab Co., Bellefonte, PA). The mobile phase was a binary mixture of methanol (40 % v/v) and pH 7.0 phosphate buffer (60 %). The detection wavelenght was 298 nm, and the flow rate of 1.0 ml/min, the retention time was 2.6 min.
The conditions of data set [2]: pH 7.0 phosphate buffer (200 mM) containing 6.27 g/l NaCl; donor solution 50 µg/ml; Hirvonen 1994; cited from earlier work.
The conditions of data set [3]: for Tacrine permeation Flux: Average ± standard deviation.
For data set [4] the following is noted: in vivo; cited from earlier work.
The conditions of data set [5]: human, pH 7.4. As to the method: Electrodes for iontophoresis were prepared from silver wire and silver chloride (Aldrich-Chemie, Steinheim, Germany). Direct current (0,5 mA/cm^2) during iontophoresis was delivered by HP 6181C DC current source (Hewlett-Packard, Cupertino, CA) from the electrodes to the diffusion chambers via salt bridges. Salt bridges were prepared by injecting 1 M NaCl-gel (3 % agar) inside plastic tubing (diameter 4 mm, length ca. 15 cm). […] Transdermal permeation of ions increase most during iontophoresis due to electrostatic repulsion. […] Because Ag/AgCl-electrodes cause precipitation of phosphates, we used HEPES-buffer at pH 7,4 during the iontophoresis experiments. […] The chambers were connected in series as constant DC-current was used.

Where two headings read alike, the source gives them in different places.

In the case of `O=C([O-])c1ccccc1O.[Na+]` [salicylate, Sodium salicylate], the “salicylate release / permeation through epidermis” value is reported as “about 0.08 µg/h” in data set [1] and 0.08 µg/h in data set [1] (listed as Salicylate). In addition, the “Lag time before steady state release” value in data set [1] (with skin) is listed as “about 2 h”. For the same molecule, the “in vitro permeability of anionic salicylate through skin” value in data set [2] was “about 0.34 µg/cm^2/h”.

For `Nc1c2c(nc3ccccc13)CCCC2` [tacrine, 9-amino-1,2,3,4-tetrahydroacridine], the “Tacrine permeation Flux” value in data set [3] (Passive permeation (3.5 % in ion-exchange fiber)) is reported as 0.003±0.0006 µg/ h per cm^2. Besides, the “Tacrine permeation Flux” value in data set [3] (Passive permeation (5 % solution)) amounted to 2.95±0.66 µg/ h per cm^2. The Lag-time of permeation result in data set [3] (human, 5 %, pH 7) was “ca. 24 h”. Besides, in data set [3] (passive, 3,5 % tacrine in cationic ion-exchange fiber), the “Delivery of tacrine across the skin from the cationic ion-exchange fiber” value is reported as “about 0,003 g/h per cm^2”. Also, the “Steady-state flux of tacrine across human skin in vitro” value in data set [3] (passive, 5 % solution, pH 7,4) is 2,95 g/h per cm^2. Further, in data set [4], the “Clearance CL” value was “about 150 l/h”, the “elimination half-life T1/2” value was 1,4 - 3,6 h and the peroral bioavailability was 5 - 35%. In addition, in data set [5] (3.5 %), the “iontophoretic delivery compared to passive permeation from the ion-exchange fiber” value is > 10 000 -fold. Besides, in data set [5] (5 %), the “lag-time of drug permeation” value is “about 0,5 h”.

These data come from patent publication EP0904128B1, “COMPOSITION AND SYSTEM FOR IONTOPHORETIC TRANSDERMAL DELIVERY OF DRUGS” (priority 1996, dated 1997).
